Consider eight compounds from ChEMBL document CHEMBL1144724, “Secondary metabolites of Cinnamosma madagascariensis and their alpha-glucosidase inhibitory properties” (J Nat Prod, 2008).

Molecules are shown by their SMILES. Calls of active or inactive are those of the source. The calls are words filed in the database; no cut-off is given here.

The nature of this assay: Inhibition of alpha-glucosidase at 0.1 mg/mL relative to 1-deoxynojirimycin.

In general, inhibition refers to the relative decrease from the control value, in per cent. A higher inhibition goes with a response far below the control. Regarding `CC(=O)O[C@@H]1[C@@H](O)C2=C(C(=O)OC2)[C@@]2(C)CCCC(C)(C)[C@H]12`, the inhibition worked out at 46.2%.
Still for that read-out and setting: for `CC(=O)O[C@@H]1C=C(C2O[C@@H]3OC(O)C4=C[C@@H](OC(C)=O)[C@H]5C(C)(C)CCC[C@]5(C)[C@]43O2)[C@](O)(C=O)[C@@]2(C)CCCC(C)(C)[C@H]12` (stereo partly drawn) the value was 83.7%; for `CC(=O)O[C@@H]1[C@@H](Cl)C2=C(COC2=O)[C@@]2(C)CCCC(C)(C)[C@H]12`, 28.1%.
With `CC(=O)O[C@@H]1C=C2C(=O)OC[C@]2(O)[C@@]2(C)CCCC(C)(C)[C@H]12`, the inhibition was 20%.
Same read-out and setting: in the case of `CC1(C)CCC[C@@]2(C)[C@H]1[C@H](O)C=C1C(=O)OC[C@@]12O` it was 7.2%.
Same read-out and setting: for `CC1(C)CCC[C@]2(C)[C@@H](C=O)C(C=O)=CC[C@@H]12` the value was 2.1%.
Consider `CO[C@@H]1O[C@@H](OC)[C@@]2(O)C1=C[C@@H](OC(C)=O)[C@H]1C(C)(C)CCC[C@@]12C`, for which the result was inactive.
As for `CC(=O)O[C@@H]1[C@@H](O)C2=C(COC2=O)[C@@]2(C)CCCC(C)(C)[C@H]12`, the inhibition worked out at 14.9%.
